Test results from patent US9549556B2, “Macrocyclic picolinamides as fungicides” (DOW AGROSCIENCES LLC, priority 2013, dated 2017).
Read-outs that look alike come from different tables or passages of the source.

Tests used:
[1] = tested on: Puccinia triticina; assay: Wheat brown rust (PUCCRT) disease control on wheat seedlings; type: in vivo; conditions: 121.5 g/H, low volume (track spray) application, read-out: PUCCRT disease control rating (% Control)
[2] = tested on: Leptosphaeria nodorum; assay: Wheat glume blotch (LEPTNO) disease control; type: in vivo; conditions: 1 DP, 100 ppm
[3] = tested on: Colletotrichum lagenarium; assay: Cucumber anthracnose (COLLLA) disease control; type: in vivo, Glomerella lagenarium (anamorph Colletotrichum lagenarium); conditions: 1 DP, 100 ppm
[4] = tested on: Blumeria graminis f. sp. hordei; assay: Barley powdery mildew (ERYSGH) disease control; type: in vivo; conditions: 1 DP, 100 ppm
[5] = tested on: Alternaria solani; assay: Tomato early blight (ALTESO) disease control; type: in vivo; conditions: 1 DP, 100 ppm
[6] = tested on: Rhyncosporium secalis; assay: Barley scald (RHYNSE) disease control; type: in vivo; conditions: 1 DP, 100 ppm
[7] = tested on: Cercospora beticola; assay: Leaf spot of sugar beets (CERCBE) disease control; type: in vivo; conditions: 1 DP, 100 ppm, sugar beet
[8] = tested on: Uncinula necator; assay: Grape powdery mildew (UNCINE) disease control; type: in vivo; conditions: 1 DP, 100 ppm
[9] = tested on: Pyricularia oryzae; type: in vivo, Magnaporthe grisea (anamorph Pyricularia oryzae); conditions: 1 DP, 100 ppm, rice
[10] = tested on: Septoria tritici; assay: Leaf blotch of wheat (SEPTTR) disease control on wheat seedlings; type: in vivo, Mycosphaerella graminicola (anamorph Septoria tritici); conditions: Zymoseptoria tritici, 121.5 g/H, low volume (track spray) application, read-out: SEPTTR disease control rating (% Control)
Protocol: Evaluation of Fungicidal Activity: Leaf Blotch of Wheat (Mycosphaerella graminicola; Anamorph: Septoria tritici; Bayer Code […]) Technical grades of materials were dissolved in acetone, which were then mixed with nine volumes of water containing 110 ppm Triton X-100. The fungicide solutions were applied onto wheat seedlings using an automated booth sprayer to run-off. All sprayed plants were allowed to air dry prior to further handling. All fungicides were evaluated using the aforementioned method for their activity vs. all target diseases. Wheat leaf blotch and brown rust activity were also evaluated using track spray applications, in which case the fungicides were formulated as EC formulations, containing 0.1% Trycol 5941 in the spray solutions. Wheat plants (variety Yuma) were grown from seed in a greenhouse in 50% mineral soil/50% soil-less Metro mix until the first leaf was fully emerged, with 7-10 seedlings per pot. These plants were inoculated with an aqueous spore suspension of Septoria tritici either prior to or after fungicide treatments. After inoculation the plants were kept in 100% relative humidity (one day in a dark dew chamber followed by two to three days in a lighted dew chamber at 20° C.) to permit spores to germinate and infect the leaf. The plants were then transferred to a greenhouse set at 20° C. for disease to develop. When disease symptoms were fully expressed on the 1st leaves of untreated plants, infection levels were assessed on a scale of 0 to 100 percent disease severity. Percent disease control was calculated using the ratio of disease severity on treated plants relative to untreated plants.

[11] = tested on: Erysiphe cichoracearum; assay: Powdery mildew of cucumber (ERYSCI) disease control; type: in vivo; conditions: 1 DP, 100 ppm

## CCCC[C@H]1[C@H](C)OC(=O)[C@@H](NC(=O)c2nccc(OC)c2OC(C)=O)COC[C@@H]1OCC1CC1 [Compound 9]
[1]; 24 h, 1DP (1 Day Protectant)
  pest or weed control at 121.5 g/ha: > 70%
[1]; 72 h, 3DC (3 Day Curative)
  pest or weed control at 121.5 g/ha: > 70%
[2]
  LEPTNO disease control rating (% Control): A (>70)
[3]
  COLLLA disease control rating (% Control): A (>70)
[4]
  ERYSGH disease control rating (% Control): B (≦70)
[5]
  ALTESO disease control rating (% Control): B (≦70)
[6]
  RHYNSE disease control rating (% Control): A (>70)
[7]
  CERCBE disease control rating (% Control): B (≦70)
[8]
  UNCINE disease control rating (% Control): A (>70)
[9]
  PYRIOR disease control rating (% Control): B (≦70)
[10]; 24 h, 1DP (1 Day Protectant)
  pest or weed control at 121.5 g/ha: > 70%
[10]; 72 h, 3DC (3 Day Curative)
  pest or weed control at 121.5 g/ha: > 70%
[11]
  ERYSCI disease control rating (% Control): B (≦70)
